How the values were obtained:
Format in all cases: in vivo
[1] = test system: Leptochloa chinensis; assay: Test Example 3: herbicidal effect by application to foliage (Wagner pot, water depth 0.1-0.5 cm); details: Nineteenth Table; application to foliage; application herbicide amount 320 g/ha
Method in brief: (§1)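 Seeds were sown in alluvial soil in Wagner pots, grown for 14 days at 25–30 °C, then sprayed uniformly on foliage with the emulsified compound diluted to a given rate per hectare. Injury was graded three weeks after treatment from 0 (≤5%) to 5 (≥90%).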

[2] = test system: Echinochloa crus-galli var. crus-galli; assay: as above; details: Nineteenth Table; application to foliage; application herbicide amount 320 g/ha
Method in brief: as §1

[3] = test system: Stellaria media; assay: Test Example 4: herbicidal effect by application to foliage (diluvial soil, plastic box); details: application to foliage; for P: herbicidal effect on Stellaria media: application herbicide amount 320 g/ha
Method in brief: (§2)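 Greenhouse plants (25° C. to 30° C., 14 d, diluvial soil) receive a foliar spray of water-diluted emulsifiable formulation at defined g/ha. Grading after 3 weeks uses a six-step herbicidal-ratio scale, with 4 covering 70% to <90% and 1 covering 5% to <20%.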

[4] = test system: Chenopodium album; assay: as above; details: application to foliage; for O: herbicidal effect on Chenopodium album: application herbicide amount 320 g/ha
Method in brief: as §2

[5] = test system: Abutilon theophrasti; assay: as above; details: application to foliage; for M: herbicidal effect on Abutilon theophrasti: application herbicide amount 320 g/ha
Method in brief: as §2

[6] = test system: Apera spica-venti.; assay: as above; details: application to foliage; for L: herbicidal effect on Apera spica-venti.: application herbicide amount 320 g/ha
Method in brief: as §2

[7] = test system: Galium spurium; assay: as above; details: application to foliage; for Q: herbicidal effect on Galium spurium: application herbicide amount 320 g/ha
Method in brief: as §2

[8] = test system: Setaria viridis; assay: as above; details: application to foliage; for G: herbicidal effect on Setaria viridis: application herbicide amount 320 g/ha
Method in brief: as §2

[9] = test system: Echinochloa crus-galli var. crus-galli; assay: as above; details: application to foliage; for H: herbicidal effect on Echinochloa crus-galli var. crus-galli: application herbicide amount 320 g/ha
Method in brief: as §2

[10] = test system: Amaranthus retroflexus; assay: as above; details: application to foliage; for N: herbicidal effect on Amaranthus retroflexus: application herbicide amount 320 g/ha
Method in brief: as §2

[11] = test system: Veronica persica; assay: as above; details: application to foliage; for R: herbicidal effect on Veronica persica: application herbicide amount 320 g/ha
Method in brief: as §2

[12] = test system: Lolium multiflorum Lam.; assay: as above; details: application to foliage; for K: herbicidal effect on Lolium multiflorum Lam.: application herbicide amount 320 g/ha
Method in brief: as §2

[13] = test system: Avena fatua; assay: as above; details: application to foliage; for I: herbicidal effect on Avena fatua: application herbicide amount 320 g/ha
Method in brief: as §2

[14] = test system: Digitaria ciliaris; assay: as above; details: application to foliage; for F: herbicidal effect on Digitaria ciliaris: application herbicide amount 320 g/ha
Method in brief: as §2

[15] = test system: Alopecurus myosuroides; assay: as above; details: application to foliage; for J: herbicidal effect on Alopecurus myosuroides: application herbicide amount 320 g/ha
Method in brief: as §2

[16] = test system: Brassica campestris L.; assay: Test Example 4: effect on crop by application to foliage (diluvial soil, plastic box); details: application to foliage; for g: effect on crop, Brassica campestris L.: application herbicide amount 320 g/ha
Method in brief: as §2

[17] = test system: Glycine max; assay: as above; details: application to foliage; for d: effect on crop, Glycine max: application herbicide amount 320 g/ha
Method in brief: as §2

[18] = test system: Beta vulgaris ssp. vulgaris; assay: as above; details: application to foliage; for f: effect on crop, Beta vulgaris ssp. vulgaris: application herbicide amount 320 g/ha
Method in brief: as §2

[19] = test system: Zea mays; assay: as above; details: application to foliage; for c: effect on crop, Zea mays: application herbicide amount 320 g/ha
Method in brief: as §2

[20] = test system: Triticum aestivum; assay: as above; details: application to foliage; for e: effect on crop, Triticum aestivum: application herbicide amount 320 g/ha
Method in brief: as §2

[21] = test system: directly sowed Oryza sativa; assay: as above; details: application to foliage; for b: effect on crop, directly sowed Oryza sativa: application herbicide amount 320 g/ha
Method in brief: as §2

## C=CCc1nnc2c(C(=O)Nc3nnco3)ccc(C(F)(F)F)n12 [1-158]
[1]
  D (herbicidal effect grade): 4 (Herbicidal ratio of 70% or more and less than 90%)
[2]
  H (herbicidal effect grade): 5 (Herbicidal ratio of 90% or more (almost completely withered))
[3]
  P: herbicidal effect on Stellaria media: 5 (Herbicidal ratio of 90% or more (almost completely withered))
[4]
  O: herbicidal effect on Chenopodium album: 5 (Herbicidal ratio of 90% or more (almost completely withered))
[5]
  M: herbicidal effect on Abutilon theophrasti: 4 (Herbicidal ratio of 70% or more and less than 90%)
[6]
  L: herbicidal effect on Apera spica-venti.: 3 (Herbicidal ratio of 40% or more and less than 70%)
[7]
  Q: herbicidal effect on Galium spurium: 3 (Herbicidal ratio of 40% or more and less than 70%)
[8]
  G: herbicidal effect on Setaria viridis: 4 (Herbicidal ratio of 70% or more and less than 90%)
[9]
  H: herbicidal effect on Echinochloa crus-galli var. crus-galli: 5 (Herbicidal ratio of 90% or more (almost completely withered))
[10]
  N: herbicidal effect on Amaranthus retroflexus: 4 (Herbicidal ratio of 70% or more and less than 90%)
[11]
  R: herbicidal effect on Veronica persica: 4 (Herbicidal ratio of 70% or more and less than 90%)
[12]
  K: herbicidal effect on Lolium multiflorum Lam.: 2 (Herbicidal ratio of 20% or more and less than 40%)
[13]
  I: herbicidal effect on Avena fatua: 3 (Herbicidal ratio of 40% or more and less than 70%)
[14]
  F: herbicidal effect on Digitaria ciliaris: 5 (Herbicidal ratio of 90% or more (almost completely withered))
[15]
  J: herbicidal effect on Alopecurus myosuroides: 1 (Herbicidal ratio of 5% or more and less than 20%)
[16]
  g: effect on crop, Brassica campestris L.: 3 (Herbicidal ratio of 40% or more and less than 70%)
[17]
  d: effect on crop, Glycine max: 4 (Herbicidal ratio of 70% or more and less than 90%)
[18]
  f: effect on crop, Beta vulgaris ssp. vulgaris: 5 (Herbicidal ratio of 90% or more (almost completely withered))
[19]
  c: effect on crop, Zea mays: 0 (Herbicidal ratio of 5% or less (almost no effect))
[20]
  e: effect on crop, Triticum aestivum: 2 (Herbicidal ratio of 20% or more and less than 40%)
[21]
  b: effect on crop, directly sowed Oryza sativa: 0 (Herbicidal ratio of 5% or less (almost no effect))

## C#CCN(C)c1nnc2c(C(=O)Nc3nnco3)ccc(C(F)(F)F)n12 [1-163]
[1]
  D (herbicidal effect grade): 5 (Herbicidal ratio of 90% or more (almost completely withered))
[2]
  H (herbicidal effect grade): 5 (Herbicidal ratio of 90% or more (almost completely withered))
[3]
  P: herbicidal effect on Stellaria media: 4 (Herbicidal ratio of 70% or more and less than 90%)
[4]
  O: herbicidal effect on Chenopodium album: 5 (Herbicidal ratio of 90% or more (almost completely withered))
[5]
  M: herbicidal effect on Abutilon theophrasti: 4 (Herbicidal ratio of 70% or more and less than 90%)
[6]
  L: herbicidal effect on Apera spica-venti.: 1 (Herbicidal ratio of 5% or more and less than 20%)
[7]
  Q: herbicidal effect on Galium spurium: 3 (Herbicidal ratio of 40% or more and less than 70%)
[8]
  G: herbicidal effect on Setaria viridis: 3 (Herbicidal ratio of 40% or more and less than 70%)
[9]
  H: herbicidal effect on Echinochloa crus-galli var. crus-galli: 5 (Herbicidal ratio of 90% or more (almost completely withered))
[10]
  N: herbicidal effect on Amaranthus retroflexus: 4 (Herbicidal ratio of 70% or more and less than 90%)
[11]
  R: herbicidal effect on Veronica persica: 2 (Herbicidal ratio of 20% or more and less than 40%)
[12]
  K: herbicidal effect on Lolium multiflorum Lam.: 1 (Herbicidal ratio of 5% or more and less than 20%)
[13]
  I: herbicidal effect on Avena fatua: 2 (Herbicidal ratio of 20% or more and less than 40%)
[14]
  F: herbicidal effect on Digitaria ciliaris: 4 (Herbicidal ratio of 70% or more and less than 90%)
[15]
  J: herbicidal effect on Alopecurus myosuroides: 1 (Herbicidal ratio of 5% or more and less than 20%)
[16]
  g: effect on crop, Brassica campestris L.: 3 (Herbicidal ratio of 40% or more and less than 70%)
[17]
  d: effect on crop, Glycine max: 4 (Herbicidal ratio of 70% or more and less than 90%)
[18]
  f: effect on crop, Beta vulgaris ssp. vulgaris: 4 (Herbicidal ratio of 70% or more and less than 90%)
[19]
  c: effect on crop, Zea mays: 0 (Herbicidal ratio of 5% or less (almost no effect))
[20]
  e: effect on crop, Triticum aestivum: 1 (Herbicidal ratio of 5% or more and less than 20%)
[21]
  b: effect on crop, directly sowed Oryza sativa: 0 (Herbicidal ratio of 5% or less (almost no effect))

## COCCc1nnc2c(C(=O)Nc3nnc(C)o3)ccc(C(F)(F)F)n12 [1-173]
[1]
  D (herbicidal effect grade): 4 (Herbicidal ratio of 70% or more and less than 90%)
[2]
  H (herbicidal effect grade): 5 (Herbicidal ratio of 90% or more (almost completely withered))
[3]
  P: herbicidal effect on Stellaria media: 5 (Herbicidal ratio of 90% or more (almost completely withered))
[4]
  O: herbicidal effect on Chenopodium album: 5 (Herbicidal ratio of 90% or more (almost completely withered))
[5]
  M: herbicidal effect on Abutilon theophrasti: 5 (Herbicidal ratio of 90% or more (almost completely withered))
[6]
  L: herbicidal effect on Apera spica-venti.: 1 (Herbicidal ratio of 5% or more and less than 20%)
[7]
  Q: herbicidal effect on Galium spurium: 4 (Herbicidal ratio of 70% or more and less than 90%)
[8]
  G: herbicidal effect on Setaria viridis: 3 (Herbicidal ratio of 40% or more and less than 70%)
[9]
  H: herbicidal effect on Echinochloa crus-galli var. crus-galli: 5 (Herbicidal ratio of 90% or more (almost completely withered))
[10]
  N: herbicidal effect on Amaranthus retroflexus: 5 (Herbicidal ratio of 90% or more (almost completely withered))
[11]
  R: herbicidal effect on Veronica persica: 4 (Herbicidal ratio of 70% or more and less than 90%)
[12]
  K: herbicidal effect on Lolium multiflorum Lam.: 1 (Herbicidal ratio of 5% or more and less than 20%)
[13]
  I: herbicidal effect on Avena fatua: 2 (Herbicidal ratio of 20% or more and less than 40%)
[14]
  F: herbicidal effect on Digitaria ciliaris: 4 (Herbicidal ratio of 70% or more and less than 90%)
[15]
  J: herbicidal effect on Alopecurus myosuroides: 1 (Herbicidal ratio of 5% or more and less than 20%)
[16]
  g: effect on crop, Brassica campestris L.: 4 (Herbicidal ratio of 70% or more and less than 90%)
[17]
  d: effect on crop, Glycine max: 4 (Herbicidal ratio of 70% or more and less than 90%)
[18]
  f: effect on crop, Beta vulgaris ssp. vulgaris: 5 (Herbicidal ratio of 90% or more (almost completely withered))
[19]
  c: effect on crop, Zea mays: 0 (Herbicidal ratio of 5% or less (almost no effect))
[20]
  e: effect on crop, Triticum aestivum: 1 (Herbicidal ratio of 5% or more and less than 20%)
[21]
  b: effect on crop, directly sowed Oryza sativa: 3 (Herbicidal ratio of 40% or more and less than 70%)

## Cn1nnnc1NC(=O)c1ccc(C(F)(F)F)n2c(SCc3ccc(Cl)nc3)nnc12 [2-097]
[1]
  D (herbicidal effect grade): 3 (Herbicidal ratio of 40% or more and less than 70%)
[2]
  H (herbicidal effect grade): 2 (Herbicidal ratio of 20% or more and less than 40%)
[3]; 320 g/ha
  herbicidal effect, P (Stellaria media): 4 (Herbicidal ratio of 70% or more and less than 90%)
[4]; 320 g/ha
  herbicidal effect, O (Chenopodium album): 5 (Herbicidal ratio of 90% or more (almost completely withered))
[5]; 320 g/ha
  herbicidal effect, M (Abutilon theophrasti): 3 (Herbicidal ratio of 40% or more and less than 70%)
[6]; 320 g/ha
  herbicidal effect, L (Apera spica-venti.): 2 (Herbicidal ratio of 20% or more and less than 40%)
[7]; 320 g/ha
  herbicidal effect, Q (Galium spurium): 3 (Herbicidal ratio of 40% or more and less than 70%)
[8]; 320 g/ha
  herbicidal effect, G (Setaria viridis): 3 (Herbicidal ratio of 40% or more and less than 70%)
[9]; 320 g/ha
  herbicidal effect, H (Echinochloa crus-galli var. crus-galli): 5 (Herbicidal ratio of 90% or more (almost completely withered))
[10]; 320 g/ha
  herbicidal effect, N (Amaranthus retroflexus): 3 (Herbicidal ratio of 40% or more and less than 70%)
[11]; 320 g/ha
  herbicidal effect, R (Veronica persica): 4 (Herbicidal ratio of 70% or more and less than 90%)
[12]; 320 g/ha
  herbicidal effect, K (Lolium multiflorum Lam.): 1 (Herbicidal ratio of 5% or more and less than 20%)
[13]; 320 g/ha
  herbicidal effect, I (Avena fatua): 2 (Herbicidal ratio of 20% or more and less than 40%)
[14]; 320 g/ha
  herbicidal effect, F (Digitaria ciliaris): 4 (Herbicidal ratio of 70% or more and less than 90%)
[15]; 320 g/ha
  herbicidal effect, J (Alopecurus myosuroides): 1 (Herbicidal ratio of 5% or more and less than 20%)
[16]; 320 g/ha
  effect on crop, g (Brassica campestris L.): 1 (Herbicidal ratio of 5% or more and less than 20%)
[17]; 320 g/ha
  effect on crop, c (Glycine max): 0 (Herbicidal ratio of 5% or less (almost no effect))
[18]; 320 g/ha
  effect on crop, f (Beta vulgaris ssp. vulgaris): 4 (Herbicidal ratio of 70% or more and less than 90%)
[19]; 320 g/ha
  effect on crop, b (Zea mays): 0 (Herbicidal ratio of 5% or less (almost no effect))
[20]; 320 g/ha
  effect on crop, e (Triticum aestivum): 0 (Herbicidal ratio of 5% or less (almost no effect))
[21]; 320 g/ha
  effect on crop, d (directly sowed Oryza sativa): 3 (Herbicidal ratio of 40% or more and less than 70%)
